These results are taken from ChEMBL document CHEMBL5614427, “Discovery and Optimization of N-Heteroaryl Indazole LRRK2 Inhibitors” (J Med Chem, 2024).

Data set [1] can be described thus: Mean residence time in Wistar Han rat at 0.1 mg/kg, iv administered as cassette dosing measured upto 24 hrs by LC-MS/MS analysis. Type of data set: ADME, organism-based. As to conditions: in vivo.
A short description of data set [2]: Lipophilicity, logD of compound at pH 7 by shake flask based HPLC method. It is filed as physicochemical. Conditions: buffer.
The nature of data set [3]: Oral bioavailability in Wistar Han rat at 1 mg/kg measured upto 24 hrs by LC-MS/MS analysis. Type of data set: ADME, organism-based. As to conditions: in vivo.
The nature of data set [4]: Mean residence time in Beagle dog at 0.25 mg/kg, iv measured upto 24 hrs by LC-MS/MS analysis. It is filed as ADME, organism-based, Canis lupus familiaris. Conditions: in vivo.
Data set [5] can be described thus: Oral bioavailability in Beagle dog at 0.5 mg/kg measured upto 24 hrs by LC-MS/MS analysis. Type of data set: ADME, organism-based, Canis lupus familiaris. Conditions: in vivo.
Data set [6] can be described thus: Ratio of unbound brain to plasma drug concentration in Wistar Han rat. As to conditions: read-out: K(p,uu,brain). It is filed as ADME, cell-free.
The nature of data set [7]: Mean residence time in Wistar Han rat at 2 mg/kg, iv measured upto 24 hrs by LC-MS/MS analysis. Type of data set: ADME, organism-based. As to conditions: in vivo.
The nature of data set [8]: AUC in rat at 100 mg/kg, po BID. It is filed as ADME, organism-based. As to conditions: in vivo.
Data set [9] in a line: Oral bioavailability in Wistar Han rat at 10 mg/kg measured upto 24 hrs by LC-MS/MS analysis. It is filed as ADME, organism-based. As to conditions: in vivo.
A short description of data set [10]: Ratio of unbound brain to plasma drug concentration in rhesus monkey. It is filed as ADME, cell-free, Macaca mulatta. Conditions: read-out: K(p,uu,brain).
Data set [11] in a line: Ratio of unbound CSF to plasma drug concentration in rhesus monkey. It is filed as ADME, Macaca mulatta.

For orientation: MRT means the average time that molecules of a dose stay in the body. For orientation: logD means lipophilicity at a set pH, counting ionised and neutral species. In data set [1], `CC1(N2CCC(c3cc4c(cnn4-c4cnn(-c5ncc(F)cn5)c4)cc3Cl)CC2)COC1` had an MRT of 3.3 h. This compound yielded a logD in data set [2] of 3.3.

The bioavailability is dose-corrected exposure relative to a reference, in per cent. Take `CC1(N2CCN(c3cc4c(cnn4-c4cnn(-c5ncc(F)cn5)c4)cc3Cl)CC2)COC1`: the bioavailability in data set [3] came to 88%; in data set [5] it was 47%. The MRT in [1] stood at 4.5 h; in [4], 17 h. Further, the logD in data set [2] turned out to be 2.8.

On to `Cn1ccc(-n2ncc3ccc([C@]4(C#N)CC45CC5)cc32)n1`, for which, in [6], the Kp uu came to 1. Moreover, the MRT in data set [1] came to 0.8 h.

In turn, `Cn1cc(-n2ncc3cc(Cl)c(C4CCN(C5(C)COC5)CC4)cc32)cn1` registered an MRT in [1] of 3.4 h. This compound also yielded a logD in [2] of 2.8.

In data set [1], `CC1(N2CCN(c3cc4c(cnn4-c4cnn(C5CC5)c4)cc3Cl)CC2)CCOC1` (stereo not given) registered an MRT of 3.2 h.

The compound `COCC12CC(n3cc(-n4ncc5cc(Cl)c(N6CCN(C7(C)COC7)CC6)cc54)cn3)(C1)C2` returned an MRT in data set [1] of 2.2 h.

Compound `CC1(N2CCN(c3cc4c(cnn4-c4cnn(C56CC(C#N)(C5)C6)c4)cc3Cl)CC2)COC1` registered an MRT in data set [1] of 2.9 h.

Take `C[C@@]1(N2CCN(c3cc4c(cnn4-c4cnn(C5CC5)c4)cc3Cl)CC2)COC[C@@H]1O`: the MRT in data set [1] came out at 2.5 h.

Turning to `CO[C@H]1C[C@H](n2cc(-n3ncc4cc(Cl)c(C5CCN(C6(C)COC6)CC5)cc43)cn2)C1`, the MRT in [1] was 4.1 h. The logD in [2] stood at 3.5.

In data set [1], `CC1(N2CCN(c3cc4c(cnn4-c4cnn(C5CC5)c4)cc3Cl)CC2)COC1` had an MRT of 2.8 h.

In turn, `CC1(N2CCC(c3cc4c(cnn4-c4cnn(C(F)F)c4)cc3Cl)CC2)COC1` registered an MRT in data set [1] of 3.5 h. The logD in data set [2] is 3.7.

For `CC1(N2CCC(c3cc4c(cnn4-c4cnn(C5CC5)c4)cc3Cl)CC2)COC1`, in data set [1], the MRT came to 3.6 h. Also, in data set [2], the log distribution coefficient (logD) was 3.4.

`Cn1ccc(-n2ncc3cc(Cl)c(C4CCN(C5COC5)CC4)cc32)n1` registered an MRT in data set [1] of 1.5 h.

In the case of `Cc1nc(-n2ncc3ccc([C@]4(C#N)CC45CC5)cc32)cs1`, the Kp uu in [6] is 0.5. The same compound returned an MRT in data set [1] of 0.8 h.

With `CC1(N2CCN(c3cc4c(cnn4-c4cnn(C56CC(C5)C6)c4)cc3Cl)CC2)COC1`, the MRT in [1] was determined as 3.4 h.

`Cc1cc(-n2ncc3ccc([C@]4(C#N)CC45CC5)cc32)nc(C)n1`: the Kp uu in [6] came out at 0.19. Also, the MRT in data set [1] is 1 h.

What is called AUC is the area under the concentration-time curve, a measure of exposure. As to `C[C@@]1(N2CCN(c3cc4c(cnn4-c4cnn(C56CC(C5)C6)c4)cc3Cl)CC2)COC[C@@H]1O`, the Kp uu in data set [6] is 0.4. Also, the MRT in data set [7] was determined as 5.8 h; in data set [4], 12 h. This compound also returned an AUC in data set [8] of 101 µM·h. The same compound registered a bioavailability in data set [9] of 48%.

With `CO[C@@H]1CCN(c2cc(-n3ncc4ccc([C@]5(C)CC56CC6)cc43)ncn2)C1`, the MRT in [1] worked out at 1 h.

`CCn1cc(-n2ncc3cc(Cl)c(C4CCN(C5(C)COC5)CC4)cc32)cn1` yielded an MRT in data set [1] of 4 h. This compound also gave a logD in [2] of 3.2.

As to `Cn1cc(-n2ncc3cc(Cl)c(C4CCN(C5COC5)CC4)cc32)cn1`, the values for the bioavailability in data set [3] and in data set [5] were 77% and 59%, respectively. The Kp uu in data set [6] was 0.4; in data set [10] it was 0.9; in data set [11], 1. The mean residence time MRT in [1] and in data set [4] was 2.1 h each time.

Take `CC1(N2CCN(c3cc4c(cnn4-c4cnn(C56CC(C(F)F)(C5)C6)c4)cc3Cl)CC2)COC1`: the MRT in [1] stood at 2.7 h.

Turning to `COC12CC(n3cc(-n4ncc5cc(Cl)c(N6CCN(C7(C)COC7)CC6)cc54)cn3)(C1)C2`, the MRT in [1] came out at 3.2 h.
